From patent US4329339A, “Anthracyclinones and derivatives thereof” (Hoffmann-La Roche Inc., priority 1980, dated 1982)
Values after ≈ are worked out from the molar mass of the structure shown. Read-outs that look alike come from different tables or passages of the source.

What was measured:
[1] = test system: Saccharomyces cerevisiae ATCC 9763; assay: MIC, agar streak method, Saccharomyces cerevisiae ATCC 9763; format: cell-based; settings: ATCC9763, Sabouraud dextrose agar
Source text: (§1) | (2) Sabouraud dextrose agar

[2] = test system: Micrococcus flavus ATCC 10240; assay: MIC, agar streak method, Micrococcus flavus ATCC 10240; format: cell-based; settings: ATCC10240, Heart infusion agar
Source text: (§2) | (1) Heart infusion agar

[3] = test system: Pseudomonas aeruginosa IFO 12689; assay: MIC, agar streak method, Pseudomonas aeruginosa IFO 12689; format: cell-based; settings: IFO12689, Heart infusion agar
Source text: as §2

[4] = test system: Klebsiella pneumoniae IFO 3512; assay: MIC, agar streak method, Klebsiella pneumoniae IFO 3512; format: cell-based; settings: IFO3512, Heart infusion agar
Source text: as §2

[5] = Acute intraperitoneal toxicity in mice; settings: mouse, in vivo, ip, judged 72 hours after a single intraperitoneal injection
[6] = test system: Candida albicans ATCC 10231; assay: MIC, agar streak method, Candida albicans ATCC 10231; format: cell-based; settings: ATCC10231, Sabouraud dextrose agar
Source text: as §1

[7] = test system: Staphylococcus epidermidis IFO 12993; assay: MIC, agar streak method, Staphylococcus epidermidis IFO 12993; format: cell-based; settings: IFO12993, Heart infusion agar
Source text: as §2

[8] = test system: Serratia marcescens IFO 12648; assay: MIC, agar streak method, Serratia marcescens IFO 12648; format: cell-based; settings: IFO12648, Heart infusion agar
Source text: as §2

[9] = test system: Escherichia coli K-12 IAM 1264; assay: MIC, agar streak method, Escherichia coli K-12 IAM 1264; format: cell-based; settings: IAM1264, Heart infusion agar
Source text: as §2

[10] = test system: Staphylococcus aureus 209P Stf; assay: MIC, agar streak method, Staphylococcus aureus 209P Stf; format: cell-based
[11] = test system: Mycobacterium smegmatis IFO 13167; assay: MIC, agar streak method, Mycobacterium smegmatis IFO 13167; format: cell-based; settings: Mycolicibacterium smegmatis, IFO13167, Heart infusion agar
Source text: as §2

Sarcina lutea IAM 1009 = assay: MIC, agar streak method, Sarcina lutea IAM 1009; format: cell-based; settings: Micrococcus luteus, IAM1009, Heart infusion agar
Source text: as §2

P388 leukaemia = assay: Antitumour effect against P388 leukaemia in mice; format: in vivo; settings: 1×10^6 P388 cells i.p., CDF1 mice
Experimental: The anthracycline glycosides provided by the present invention were tested against P388 leukaemia in mice. When CDF1 mice are inoculated with 1×10^6 cells of P388 intraperitoneally and each of the antibiotics is administered intraperitoneally on days 1, 5 and 9, the survival time of the treated mice is prolonged as shown in Table 7 hereinafter.

Bacillus cereus Ro 179B = assay: MIC, agar streak method, Bacillus cereus Ro 179B; format: cell-based; settings: RO179B, Heart infusion agar
Source text: as §2

[12] = test system: Candida tropicalis ATCC 13803; assay: MIC, agar streak method, Candida tropicalis ATCC 13803; format: cell-based; settings: ATCC13803, Sabouraud dextrose agar
Source text: as §1

[13] = test system: Staphylococcus aureus 209P IAM 1011; assay: MIC, agar streak method, Staphylococcus aureus 209P IAM 1011; format: cell-based; settings: Heart infusion agar
Source text: as §2

[14] = test system: Bacillus subtilis IAM 1027; assay: MIC, agar streak method, Bacillus subtilis IAM 1027; format: cell-based; settings: IAM1027, Heart infusion agar
Source text: as §2

[15] = test system: Escherichia coli NIHJ IFO 12734; assay: MIC, agar streak method, Escherichia coli NIHJ IFO 12734; format: cell-based; settings: IFO12734, Heart infusion agar
Source text: as §2

[16] = test system: Proteus vulgaris IAM 1025; assay: MIC, agar streak method, Proteus vulgaris IAM 1025; format: cell-based; settings: IAM1025, Heart infusion agar
Source text: as §2

[17] = Staphylococcus aureus 209P Stf, read-out: MIC
[18] = 1.88 mg/kg/day i.p. on days 1, 5 and 9
[19] = 3.75 mg/kg/day i.p. on days 1, 5 and 9
[20] = 7.5 mg/kg/day i.p. on days 1, 5 and 9
[21] = 15 mg/kg/day i.p. on days 1, 5 and 9

Structure (SMILES) | MIC [1] [µg/mL] | MIC [2] [µg/mL] | MIC [3] [µg/mL] | MIC [4] [µg/mL] | LD50 at 72 h [5] [mg/kg] | MIC [6] [µg/mL] | MIC [7] [µg/mL] | MIC [8] [µg/mL] | MIC [9] [µg/mL] | MIC [11] [µg/mL] | MIC (Sarcina lutea IAM 1009) [µg/mL] | Mean survival (T/C, %) (P388 leukaemia; [18]) [%] | Mean survival (T/C, %) (P388 leukaemia; [19]) [%] | Mean survival (T/C, %) (P388 leukaemia; [20]) [%] | Mean survival (T/C, %) (P388 leukaemia; [21]) [%] | MIC (Bacillus cereus Ro 179B) [µg/mL] | MIC [12] [µg/mL] | MIC [13] [µg/mL] | MIC [14] [µg/mL] | MIC [15] [µg/mL] | also measured
COC(=O)C1c2cc3c(c(O)c2C(OC2CC(N(C)C)C(OC4CC(O)C(OC5CCC(=O)C(C)O5)C(C)O4)C(C)O2)CC1(C)O)C(=O)c1c(O)cccc1C3=O (stereo not shown) [Auramycin A] | > 100 | 0.1 (≈ 0.125 µM) | > 100 | > 100 | ~100 | > 100 | 3.12 (≈ 3.91 µM) | > 100 | > 100 | 6.25 (≈ 7.83 µM) | 0.1 (≈ 0.125 µM) | 139 | 129 | 134 | 170 | 0.39 (≈ 0.489 µM) | > 100 | 1.56 (≈ 1.96 µM) | 3.12 (≈ 3.91 µM) | > 100 | MIC [10, 17]: 0.78 µg/mL (≈ 0.978 µM); MIC [16]: > 100 µg/mL
COC(=O)C1c2cc3c(c(O)c2C(OC2CC(N(C)C)C(OC4CC5OC6CC(=O)C(C)OC6OC5C(C)O4)C(C)O2)CC1(C)O)C(=O)c1c(O)cccc1C3=O (stereo not shown) [Auramycin B] | > 100 | 0.05 (≈ 0.0628 µM) | > 100 | > 100 | ~100 | > 100 | 1.56 (≈ 1.96 µM) | > 100 | > 100 | 3.12 (≈ 3.92 µM) | 0.05 (≈ 0.0628 µM) | 113 | 124 | 149 | 196 | 0.2 (≈ 0.251 µM) | > 100 | 0.39 (≈ 0.49 µM) | 0.78 (≈ 0.98 µM) | > 100 | MIC [10, 17]: 0.39 µg/mL (≈ 0.49 µM); MIC [16]: > 100 µg/mL
COC(=O)C1c2cc3c(c(O)c2C(OC2CC(N(C)C)C(OC4CC(O)C(OC5CCC(=O)C(C)O5)C(C)O4)C(C)O2)CC1(O)CC(C)=O)C(=O)c1c(O)cccc1C3=O (stereo not shown) [Sulfurmycin A] | > 100 | 0.2 (≈ 0.238 µM) | > 100 | > 100 | ~100 | > 100 | 3.12 (≈ 3.71 µM) | > 100 | > 100 | 25 (≈ 29.8 µM) | 0.1 (≈ 0.119 µM) | 124 | 134 | 144 | 165 | 0.2 (≈ 0.238 µM) | > 100 | 0.78 (≈ 0.929 µM) | 0.78 (≈ 0.929 µM) | > 100 | MIC ([10]; Staphylococcus aureus, 209P): 0.2 µg/mL (≈ 0.238 µM); MIC [16]: > 100 µg/mL
COC(=O)C1c2cc3c(c(O)c2C(OC2CC(N(C)C)C(OC4CC5OC6CC(=O)C(C)OC6OC5C(C)O4)C(C)O2)CC1(O)CC(C)=O)C(=O)c1c(O)cccc1C3=O (stereo not shown) [Sulfurmycin B] | > 100 | 0.1 (≈ 0.119 µM) | > 100 | > 100 | 25 to 50 | > 100 | 1.56 (≈ 1.86 µM) | > 100 | > 100 | 6.25 (≈ 7.46 µM) | 0.1 (≈ 0.119 µM) | 124 | 124 | 155 | 165 | 0.39 (≈ 0.465 µM) | > 100 | 0.78 (≈ 0.931 µM) | 0.78 (≈ 0.931 µM) | > 100 | MIC ([10]; Staphylococcus aureus, 209P): 0.39 µg/mL (≈ 0.465 µM); MIC [16]: > 100 µg/mL
